Reference: EP4796536A1, “CRYSTAL FORMS OF COMPOUND HAVING FUSED FIVE- AND SIX-MEMBERED RINGS, PREPARATION METHOD THEREFOR, AND USE THEREOF” (Hangzhou Polymed Biopharmaceuticals, Inc., priority 2023, dated 2025)
pIC50: −log10 of the molar value.

Tests used:
IRAK4 kinase = biological target: T1, IRAK4 kinase (Homo sapiens, UniProt Q9NWZ3); assay: Inhibition of IRAK4 kinase activity, fluorescence microfluidic mobility assay; type: biochemical; conditions: IRAK4 6 nM, ATP 10 µM, substrate peptide FAM-P8 3 µM
T1 construct: purchased Carna 09-145
T1 sequence (Q9NWZ3 1-460): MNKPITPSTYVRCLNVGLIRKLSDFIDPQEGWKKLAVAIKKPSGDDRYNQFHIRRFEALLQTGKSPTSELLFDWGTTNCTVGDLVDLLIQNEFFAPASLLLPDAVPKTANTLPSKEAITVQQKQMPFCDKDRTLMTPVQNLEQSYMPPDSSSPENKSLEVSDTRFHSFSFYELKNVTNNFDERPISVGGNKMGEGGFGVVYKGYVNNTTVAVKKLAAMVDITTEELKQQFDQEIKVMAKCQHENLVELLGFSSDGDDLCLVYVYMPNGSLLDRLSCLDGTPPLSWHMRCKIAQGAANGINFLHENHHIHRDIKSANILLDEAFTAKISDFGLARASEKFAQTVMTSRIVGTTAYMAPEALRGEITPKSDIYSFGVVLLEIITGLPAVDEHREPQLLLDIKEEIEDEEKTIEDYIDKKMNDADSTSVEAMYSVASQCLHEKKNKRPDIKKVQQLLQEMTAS
Method: Based on the experimental method of fluorescence microfluidic mobility assay, the IC50 value of competitive binding of IRAK4 kinase to ATP by the compound was determined. The initial detection concentration of the compound was 10 µM, which was 4-fold serially diluted to […] and assayed in duplicate. In this case, commercially available staurosporine was the standard control for the assay.
• 1) IRAK4 kinase was dissolved in kinase buffer (50 mM HEPES pH 7.5, 10 mM MgCl2, 2 mM DTT, and 0.01% Brij-35) at a final concentration of 6 nM. • 2) The substrate peptide FAM-P8 and ATP were dissolved in the above kinase buffer, and the final concentrations of the substrate peptide FAM-P8 and ATP for IRAK4 were 3 µM and 10 µM, respectively. • 3) Dilution of compound: the compound was first diluted to 50 µM, and then 4-fold serially diluted with DMSO. […] After incubation at 28°C for 1 hour, 25 µL of stop solution (100 mM HEPES pH 7.5, 50 mM EDTA, 0.2% Coating Reagent #3, and 0.015% Brij-35) was added to each well to terminate the reaction. • 5) Data reading: CaliperEZ Reader II instrument was used to read the conversion rate data. […]

[1] = biological target: T2, IRAK4 protein in THP-1 cells (Homo sapiens, UniProt Q9NWZ3); assay: IRAK4 protein degradation in THP-1 cells by Western Blot; type: cell-based; conditions: 24 hours after administration
T2 construct: endogenous in cells; host or cells: THP-1
T2 sequence (Q9NWZ3 1-460): T1 sequence (Q9NWZ3 1-460)
Method: 2.2.2.1 Based on the experimental method of immunoblot, i.e., Western Blot, THP-1 cell samples processed by gel electrophoresis were stained with specific antibodies, and the degrading activity of the compound on the IRAK4 protein in THP-1 cells was determined by analyzing the position and depth of staining. The detection concentrations of the compound were 0 µM, 0.3 µM, 1 µM, and 3 µM, and the compound was used to treat the cells for 8 hours, 16 hours, 24 hours, and 48 hours. In this case, glyceraldehyde-3-phosphate dehydrogenase (GAPDH) was the internal reference protein for the assay.
• Running buffer: 50 mL of MOPS SDS Running Buffer (20X) and 50 mL of 20× TBS Tween-20 buffer were diluted to 1L with deionized water as running buffer; • 5% skim milk (w/v): 5% skim milk was prepared by diluting 2.5 g of skim milk with 50 mL of 1× TBS Tween-20 buffer; • 5% BSA (w/v): 5% BSA was prepared by diluting 2.5 g of BSA with 50 mL of 1× TBS Tween-20 buffer; • Anti-IRAK4 antibody was diluted at 1:1000 with 5% BSA into a primary antibody working solution; • Goat Anti-Rabbit IgG H&L (HRP) was diluted at 1:2000 with 5% BSA into a secondary antibody working solution; • Goat Anti-Mouse IgG H&L (HRP) was diluted at 1:2000 with 5% BSA into a secondary antibody working solution. […]

SMILES: COc1cc2nn(C3CC4(CCN(C(=O)C5CCN(c6ccc7c(c6)C(=O)N(C6CCC(=O)NC6=O)C7=O)CC5)CC4)C3)cc2cc1NC(=O)c1cccc(C(F)(F)F)n1 (centres unmarked) [X]
- pIC50 (IRAK4 kinase): 7.59
- DC50 [1]: 4.02 nM
